Measurements published in ChEMBL document CHEMBL5356934, “Antibacterial activities of anthraquinones: structure-activity relationships and action mechanisms” (RSC Med Chem, 2023).
Values after ≈ are worked out from the molar mass of the structure shown.

Columns and labels:
[1] = system: Salmonella typhimurium; assay: Antibacterial activity against Salmonella typhimurium ATCC 1255 assessed as reduction in bacterial growth; format: functional, Salmonella enterica subsp. enterica serovar Typhimurium; conditions: Salmonella enterica
[2] = system: Staphylococcus aureus; assay: Antibacterial activity against Staphylococcus aureus NCTC 11994 assessed as reduction in bacterial growth; format: functional
[3] = system: Staphylococcus aureus; assay: Antibacterial activity against Staphylococcus aureus 4125 assessed as reduction in bacterial growth; format: functional
[4] = system: Bacillus cereus; assay: Antibacterial activity against Bacillus cereus; format: functional
[5] = system: Staphylococcus aureus; assay: Antibacterial activity against Staphylococcus aureus assessed as diameter of inhibition zone; format: functional
[6] = system: Enterococcus faecium; assay: Antibacterial activity against vancomycin susceptible Enterococcus faecium119-39A assessed as inhibition of bacterial growth by broth microdilution method; format: functional; conditions: 119-39A
[7] = system: Staphylococcus aureus; assay: Antibacterial activity against methicillin-resistant Staphylococcus aureus J-108; format: functional
[8] = system: Enterococcus faecium; assay: Antibacterial activity against vancomycin-resistant Enterococcus faecium; format: functional
[9] = system: Staphylococcus aureus; assay: Antibacterial activity against methicillin-susceptible Staphylococcus aureus assessed as reduction in bacterial growth; format: functional
[10] = system: Staphylococcus aureus; assay: Antibacterial activity against Staphylococcus aureus ATCC 25923 assessed as reduction in microbial growth incubated for 24 hrs by broth micro-dilution method; format: functional
[11] = system: Salmonella; assay: Antibacterial activity against Salmonella ATCC 12022 assessed as inhibition of bacterial growth by standard broth microdilution method; format: functional
[12] = system: Porphyromonas gingivalis; assay: Antibacterial activity against Porphyromonas gingivalis ATCC 33277 assessed as reduction in bacterial growth incubated for 24 hrs by micro-dilution method; format: functional
[13] = system: Streptococcus mutans; assay: Antibacterial activity against Streptococcus mutans ATCC 25175 assessed as inhibition of bacterial growth incubated for 18 to 20 hrs by CLSI protocol based broth microdilution method; format: functional; conditions: time 18-20 hrs
[14] = system: Escherichia coli; assay: Antibacterial activity against Escherichia coli ATCC 8730 assessed as reduction in bacterial growth; format: functional
[15] = system: Pseudomonas aeruginosa; assay: Antibacterial activity against wild type Pseudomonas aeruginosa ATCC 27853 after 24 hrs by microbroth dilution method; format: functional
[16] = system: Staphylococcus aureus; assay: Antibacterial activity against Staphylococcus aureus ATCC 25923 assessed as reduction in microbial growth after 24 hrs by spectrophotometric method; format: functional
[17] = target: Acetylcholinesterase (Homo sapiens, UniProt P22303); assay: Inhibition of Acetylcholinesterase (unknown origin)
Acetylcholinesterase, sequence (P22303 whole entry): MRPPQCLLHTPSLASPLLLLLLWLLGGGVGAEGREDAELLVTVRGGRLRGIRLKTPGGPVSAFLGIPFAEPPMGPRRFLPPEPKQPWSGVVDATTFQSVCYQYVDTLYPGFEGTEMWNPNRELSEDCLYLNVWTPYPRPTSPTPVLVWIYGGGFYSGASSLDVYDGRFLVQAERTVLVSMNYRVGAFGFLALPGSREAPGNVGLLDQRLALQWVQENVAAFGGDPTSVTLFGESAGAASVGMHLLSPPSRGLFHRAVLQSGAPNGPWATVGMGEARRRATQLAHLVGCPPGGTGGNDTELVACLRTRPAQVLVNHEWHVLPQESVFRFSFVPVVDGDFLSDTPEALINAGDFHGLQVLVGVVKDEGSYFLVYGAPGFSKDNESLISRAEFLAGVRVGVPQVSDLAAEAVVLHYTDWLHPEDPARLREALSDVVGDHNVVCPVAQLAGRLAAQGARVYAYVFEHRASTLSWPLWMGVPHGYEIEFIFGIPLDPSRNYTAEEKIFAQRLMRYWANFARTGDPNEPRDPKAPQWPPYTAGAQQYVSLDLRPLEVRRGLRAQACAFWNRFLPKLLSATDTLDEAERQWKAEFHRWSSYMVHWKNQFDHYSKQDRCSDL

[18] = system: Vibrio campbellii; assay: Antibacterial activity against Vibrio campbellii MCCC E333 assessed as cell growth inhibition measured after 24 hrs by resazurin dye based assay; format: functional
[19] = system: Staphylococcus aureus; assay: Antibacterial activity against methicillin-resistant Staphylococcus aureus ATCC 43300 assessed as reduction in bacterial growth by CLSI protocol based broth microdilution method; format: functional
[20] = system: Vibrio rotiferianus; assay: Antibacterial activity against Vibrio rotiferianus MCCC E385 assessed as cell growth inhibition measured after 24 hrs by resazurin dye based assay; format: functional
[21] = system: Staphylococcus aureus; assay: Antibacterial activity against methicillin-resistant Staphylococcus aureus CGMCC1.12483 assessed as reduction in bacterial growth by CLSI protocol based broth microdilution method; format: functional
[22] = system: Vibrio harveyi; assay: Antimicrobial activity against Vibrio harveyi assessed as bacterial growth inhibition; format: functional
[23] = system: Escherichia coli; assay: Antimicrobial activity against Escherichia coli assessed as reduction in microbial growth; format: functional
[24] = system: Pseudomonas aeruginosa; assay: Antibacterial activity against Pseudomonas aeruginosa assessed as zone of inhibition; format: functional
[25] = system: Proteus vulgaris; assay: Antimicrobial activity against Proteus vulgaris assessed as inhibition of bacterial growth; format: functional
[26] = system: Staphylococcus aureus; assay: Antibacterial activity against Staphylococcus aureus assessed as reduction in microbial growth; format: functional
[27] = system: Rothia kristinae; assay: Antibacterial activity against Rothia kristinae assessed as reduction in microbial growth; format: functional
[28] = system: Trichophyton rubrum; assay: Antifungal activity against Trichophyton rubrum assessed as fungal growth inhibition; format: functional
[29] = system: Mycobacterium tuberculosis; assay: Antimycobacterial activity against Mycobacterium tuberculosis H37Ra assessed as reduction in microbial growth; format: functional
[30] = system: Pseudomonas aeruginosa; assay: Antibacterial activity against Pseudomonas aeruginosa assessed as reduction in bacterial growth incubated for 24 hrs by broth microdilution method; format: functional
[31] = system: Candida albicans; assay: Antifungal activity against Candida albicans assessed as fungal growth inhibition by broth microdilution method; format: functional
[32] = system: Aeromonas hydrophila; assay: Antibacterial activity against Aeromonas hydrophila IB101; format: functional
[33] = system: Neisseria gonorrhoeae; assay: Antibacterial activity against resistant Neisseria gonorrhoeae assessed inhibition of bacterial growth; format: functional
[34] = system: Epidermophyton floccosum; assay: Antifungal activity against Epidermophyton floccosum measured after 96 hrs by two fold serial dilution technique; format: functional
[35] = system: Klebsiella aerogenes; assay: Antimicrobial activity against Enterobacter aerogenes ATCC 45102; format: functional
[36] = system: Bacillus cereus; assay: Antibacterial activity against Bacillus cereus assessed as reduction in microbial growth after 18 hrs by MTT based broth dilution method; format: functional
[37] = system: Staphylococcus epidermidis; assay: Antibacterial activity against Staphylococcus epidermidis assessed as reduction in microbial growth; format: functional
[38] = system: Escherichia coli; assay: Antibacterial activity against Escherichia coli assessed as zone of inhibition; format: functional
[39] = system: Escherichia coli; assay: Antibacterial activity against Escherichia coli assessed as reduction in bacterial growth incubated for 12 hrs by microdilution method; format: functional
[40] = system: Aeromonas hydrophila; assay: Antibacterial activity against Aeromonas hydrophila; format: functional
[41] = system: Cryptococcus neoformans; assay: Antifungal activity against Cryptococcus neoformans assessed as reduction in microbial growth; format: functional
[42] = system: Salmonella typhimurium; assay: Antibacterial activity against Salmonella typhimurium TISTR 780 assessed as inhibition of bacterial growth incubated for 16 to 18 hrs by Mueller-Hinton broth based two-fold serial dilution method; format: functional, Salmonella enterica subsp. enterica serovar Typhimurium; conditions: Salmonella enterica, time 16-18 hrs
[43] = system: Pseudomonas aeruginosa; assay: Antibacterial activity against Pseudomonas aeruginosa TISTR 781 assessed as inhibition of bacterial growth incubated for 16 to 18 hrs by Mueller-Hinton broth based two-fold serial dilution method; format: functional; conditions: time 16-18 hrs
[44] = system: Bacillus subtilis; assay: Antibacterial activity against Bacillus subtilis ATCC 6051 assessed as reduction in bacterial growth incubated for 24 hrs by broth micro-dilution method; format: functional
[45] = system: Staphylococcus aureus; assay: Antibiofilm activity against Staphylococcus aureus CMCC 26003 assessed as reduction in live bacteria in biofilm formation incubated for 24 hrs by crystal violet staining based analysis; format: functional
[46] = system: Escherichia coli; assay: Antibacterial activity against Escherichia coli ATCC 25922 assessed as bacterial growth inhibition measured after 48 hrs by resazurin assay; format: functional
[47] = system: Staphylococcus aureus; assay: Antibacterial activity against methicillin resistant Staphylococcus aureus ATCC 33592 incubated for 24 hrs by Mueller-Hinton broth based assay; format: functional
[48] = system: Streptococcus suis; assay: Antibacterial activity against Streptococcus suis ATCC 700794 assessed as bacterial growth inhibition incubated for 24 hrs by broth micro-dilution method; format: functional
[49] = system: Pseudomonas aeruginosa; assay: Antibacterial activity against Pseudomonas aeruginosa assessed as reduction in bacterial growth by broth microdilution method; format: functional
[50] = system: Haemophilus parasuis; assay: Antibacterial activity against Haemophilus parasuis clinical isolates assessed as bacterial growth inhibition measured after 16 to 24 hrs by broth microdilution assay; format: functional; conditions: Glaesserella parasuis; time 16-24 hrs
[51] = system: Bacillus cereus; assay: Antibacterial activity against Bacillus cereus TISTR 687 incubated for 16 to 18 hrs by Mueller-Hinton broth based two-fold serial dilution method; format: functional; conditions: time 16-18 hrs
[52] = system: Pseudomonas aeruginosa; assay: Antibacterial activity against Pseudomonas aeruginosa TISTR 781 assessed as reduction in bacterial growth by broth microdilution method; format: functional
[53] = system: Mycobacterium tuberculosis; assay: Anti-mycobacterial activity against Mycobacterium tuberculosis H37Ra assessed as reduction in bacterial growth […]; format: functional
[54] = system: Staphylococcus aureus; assay: Antibacterial activity against Staphylococcus aureus ATCC 25923 assessed as reduction in bacterial growth incubated for 24 hrs by serial dilution method; format: functional
[55] = system: Bacillus sp.; assay: Antibacterial activity against Bacillus sp. assessed as inhibition of bacterial growth; format: functional; conditions: Bacillus sp. (in: firmicutes)

Compound: COc1cc(C)c2c(c1[C@@H]1O[C@@H](CO)C(O)[C@@H](O)[C@@H]1OC(=O)/C=C\c1ccc(O)cc1)CC(CC(C)=O)=CC2=O (some centres undefined)
- MIC [1]: 0.18 µM (≈ 0.0995 µg/mL)
- MIC [2]: 0.72 µM (≈ 0.398 µg/mL)

Compound: COc1cc(O)c2c(c1)C(=O)c1cc(C)cc(O)c1C2=O [PHYSCION]
- MIC [3]: 90 µg/mL (≈ 317 µM)

Compound: COC1=CC(=O)c2c(O)c3c(c(O)c2C1=O)CC(C)(O)C(OC(C)=O)C3 (centres undefined)
- MIC [4]: 0.0088 µM (≈ 0.00319 µg/mL)

Compound: COc1cc2c(c(O)c1OC)c(=O)c1ccc(O)cc1n2C
- diameter of the inhibition zone (DIZ) [5]: 9.58 mm

Compound: COc1cc2oc3cc(O)c(OC)c(CC=C(C)C)c3c(=O)c2c(O)c1CC=C(C)C
- MIC [6]: 6.25 µg/mL (≈ 14.7 µM)
- MIC [7]: 3.13 µg/mL (≈ 7.37 µM)
- MIC [8]: 6.25 µg/mL (≈ 14.7 µM)
- MIC [9]: 6.25 µg/mL (≈ 14.7 µM)

Compound: COC1=CC(=O)c2c(cc3c(c2O)CC(O)C(C)(O)C3)C1=O (centres undefined)
- MIC [4]: 0.312 µM (≈ 0.0949 µg/mL)

Compound: O=C1c2cccc(O)c2C(=O)c2c(O)cc(CO)cc21 [ALOE-EMODIN]
- MIC [10]: 4 µg/mL
- MIC [11]: 250 µg/mL (≈ 925 µM)
- MIC [12]: 2.5 µg/mL (≈ 9.25 µM)
- MIC [13]: 6.25 µg/mL (≈ 23.1 µM)
- MIC [14]: 125 µg/mL (≈ 463 µM)

Compound: COc1c(O)c(C=O)cc2c(=O)c3ccccc3oc12
- MIC [15]: 32 µg/mL (≈ 118 µM)

Compound: CN(CCC(O)COc1cccc2c(=O)c3ccc(Cl)cc3oc12)C(C)(C)C (centres undefined)
- MIC [16]: < 20 µg/mL

Compound: O=C1c2ccccc2C(=O)c2c(O)c(O)cc(O)c21 [PURPURIN]
- IC50 [17]: 300 nM

Compound: CCCOc1ccc(N2CCCCC2)c2c(=O)c3ccccc3sc12
- MIC [15]: 32 µg/mL (≈ 90.5 µM)

Compound: CC1=CC2c3c(O)c(O)c4oc5cc(O)cc(O)c5c(=O)c4c3[C@H](c3cc(O)c(O)c4oc5cc(O)cc(O)c5c(=O)c34)C2C(C)(C)C1 (some centres undefined)
- MIC [18]: 15.6 µg/mL (≈ 23.9 µM)
- MIC [19]: 3.9 µg/mL (≈ 5.98 µM)
- MIC [20]: 15.6 µg/mL (≈ 23.9 µM)
- MIC [21]: 3.9 µg/mL (≈ 5.98 µM)

Compound: Cc1cccc2c(=O)c3ccc(OCC(O)CNC(C)C)cc3oc12 (centres undefined)
- MIC [16]: < 20 µg/mL

Compound: Cc1cc(O)c2c(c1)C(=O)c1cccc(O)c1C2=O [CHRYSOPHANOL]
- MIC [22]: 1000 µg/mL (≈ 3930 µM)
- MIC [23]: 3.13 µg/mL
- inhibition zone (IZ) [24]: 18 mm
- MIC [25]: 128 µg/mL (≈ 503 µM)
- MIC [26]: > 250 µg/mL
- MIC [27]: > 250 µg/mL
- MIC [28]: 156 µg/mL (≈ 614 µM)
- MIC [29]: 64 µg/mL
- MIC [30]: 128 µg/mL (≈ 503 µM)
- MIC [31]: 50 µg/mL (≈ 197 µM)
- MIC [32]: 200 µg/mL (≈ 787 µM)
- MIC [33]: 75 µg/mL (≈ 295 µM)
- MIC [34]: 625 µg/mL (≈ 2460 µM)
- MIC [35]: > 250 µg/mL
- MIC [36]: > 250 µg/mL
- MIC [37]: > 250 µg/mL
- inhibition zone (IZ) [38]: 18 mm
- MIC [39]: 125 µg/mL (≈ 492 µM)
- MIC [40]: 200 µg/mL (≈ 787 µM)
- MIC [3]: 90 µg/mL (≈ 354 µM)
- MIC [41]: 50 µg/mL

Compound: C=CCNCC(O)COc1ccc2c(=O)c3cccc(C)c3oc2c1 (centres undefined)
- MIC [16]: < 20 µg/mL

Compound: COc1cc(C=O)c2c(=O)c3ccccc3oc2c1O
- MIC [15]: 32 µg/mL (≈ 118 µM)

Compound: Cc1cc(O)c2c(c1)C(=O)c1cc(O)cc(O)c1C2=O [EMODIN]
- MIC [42]: 128 µg/mL (≈ 474 µM)
- MIC [43]: 128 µg/mL (≈ 474 µM)
- MIC [44]: 8 µg/mL (≈ 29.6 µM)
- MIC [45]: 0.125 µg/mL (≈ 0.463 µM)
- MIC [46]: > 128 µg/mL
- MIC [47]: 4 µg/mL (≈ 14.8 µM)
- MIC [48]: 0.125 µg/mL (≈ 0.463 µM)
- MIC [49]: > 128 µg/mL
- MIC [3]: 20 µg/mL (≈ 74 µM)
- MIC [50]: 32 µg/mL (≈ 118 µM)
- MIC [51]: 16 µg/mL (≈ 59.2 µM)
- MIC [52]: > 128 µg/mL
- MIC [53]: 0.9 µg/mL (≈ 3.33 µM)
- MIC [54]: 64 µg/mL (≈ 237 µM)
- MIC [55]: 0.5 µg/mL (≈ 1.85 µM)

Compound: CN(CCO)CC(O)COc1cccc2c(=O)c3ccccc3oc12 (centres undefined)
- MIC [16]: < 20 µg/mL

Compound: COc1ccccc1CNCCC(O)COc1cccc2c(=O)c3ccccc3oc12 (centres undefined)
- MIC [16]: < 20 µg/mL
